Reference: the supplement of paper PMC10307832

Columns and labels:
Test in all cases: relative viability (nuclei count vs DMSO), 5 days (fraction); higher = more cells survive
[1] = compound: C[C@]12O[C@H](C[C@]1(O)CO)n1c3ccccc3c3c4c(c5c6ccccc6n2c5c31)CNC4=O [Lestaurtinib] + O=C(CCCCCCC(=O)Nc1ccccc1)NO [Vorinostat] (partner 1 µM)
Outline: (§1)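 Medians of duplicate plates are given as relative viability. That measure is the nuclei count in treated wells divided by the count in vehicle wells. Counts were taken on 4× images of lung cancer cell lines in 1536-well plates, 5 days after pin-tool dosing the day after seeding with one drug alone or a fixed anchor-drug dose plus five library-drug doses (not always all listed) in √10 steps.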

[2] = compound: C1/C(=C\C2=CC=CS2)/C(=O)/C(=C/C3=CC=CS3)/C1 + COc1cccc2cc(-c3nc([C@H]4CC[C@H](C(=O)O)CC4)n4ncnc(N)c34)[nH]c12 [OSI-027] (partner 0.5 µM)
Outline: as §1

TPCA-1 + Tozasertib = compound: C1=CC(=CC=C1C2=CC(=C(S2)NC(=O)N)C(=O)N)F [TPCA-1] + Cc1cc(Nc2cc(N3CCN(C)CC3)nc(Sc3ccc(NC(=O)C4CC4)cc3)n2)n[nH]1 [Tozasertib] (partner 0.1 µM)
Outline: as §1

[3] = compound: C[C@]12O[C@H](C[C@]1(O)CO)n1c3ccccc3c3c4c(c5c6ccccc6n2c5c31)CNC4=O [Lestaurtinib] + C[C@@H](Oc1cc(-c2cnn(C3CCNCC3)c2)cnc1N)c1c(Cl)ccc(F)c1Cl [Crizotinib] (partner 1 µM)
Outline: as §1

Cell Line | relative viability ([1]; first compound 0.005 µM) | relative viability ([1]; first compound 0.01581 µM) | relative viability ([1]; first compound 0.05 µM) | relative viability ([1]; first compound 0.1581 µM) | relative viability ([1]; first compound 0.5 µM) | relative viability ([2]; first compound 0.2 µM) | relative viability ([2]; first compound 0.6325 µM) | relative viability ([2]; first compound 2 µM) | relative viability ([2]; first compound 6.325 µM) | relative viability ([2]; first compound 20 µM) | relative viability (TPCA-1 + Tozasertib; first compound 0.04 µM) | relative viability (TPCA-1 + Tozasertib; first compound 0.1265 µM) | relative viability (TPCA-1 + Tozasertib; first compound 0.4 µM) | relative viability (TPCA-1 + Tozasertib; first compound 1.265 µM) | relative viability (TPCA-1 + Tozasertib; first compound 4 µM) | relative viability ([3]; first compound 0.005 µM) | relative viability ([3]; first compound 0.01581 µM) | relative viability ([3]; first compound 0.05 µM) | relative viability ([3]; first compound 0.1581 µM) | relative viability ([3]; first compound 0.5 µM)
HOP-62 | 0.632 | 0.767 | 0.494 | 0.426 | 0.295 | 0.836 | 0.73 | 0.851 | 0.771 | 0.872 | 0.368 | 0.367 | 0.392 | 0.292 | 0.27 | 0.905 | 0.919 | 0.972 | 0.721 | 0.18
NCI-H650 | 0.448 | 0.427 | 0.385 | 0.28 | 0.149 | 0.578 | 0.465 | 0.591 | 0.53 | 0.485 | 0.707 | 0.708 | 0.734 | 0.546 | 0.256 | 0.744 | 0.764 | 0.509 | 0.414 | 0.226
NCI-H358 | 0.691 | 0.539 | 0.382 | 0.145 | 0.117 | 0.807 | 0.801 | 0.914 |  | 0.651 | 0.126 | 0.113 | 0.108 | 0.105 | 0.0839 | 0.61 | 0.297 | 0.402 | 0.31 | 0.0912
BEN | 0.631 | 0.704 | 0.59 | 0.477 | 0.309 | 0.258 | 0.275 | 0.352 | 0.288 | 0.282 | 0.548 |  | 0.526 | 0.628 | 0.403 | 0.902 | 1.1 | 0.879 | 0.687 | 0.29
SW 1573 | 0.767 | 0.864 | 0.488 | 0.424 | 0.198 | 0.603 | 0.724 | 0.756 | 0.599 | 0.617 | 0.189 | 0.162 | 0.181 | 0.132 | 0.135 | 0.929 | 0.88 | 0.544 | 0.423 | 0.343
ChaGo-K-1 | 0.767 | 0.807 | 0.614 | 0.465 | 0.356 | 0.549 | 0.59 | 0.588 | 0.491 | 0.268 | 0.232 | 0.237 | 0.251 | 0.226 | 0.207 | 1.25 | 1.33 | 0.855 | 0.778 | 0.381
SK-MES-1 | 1.18 | 1.05 | 0.487 | 0.411 | 0.215 | 0.598 | 0.689 | 0.627 | 0.55 | 0.616 | 0.866 | 0.82 | 0.933 | 0.728 | 0.24 | 1.02 | 0.964 | 0.92 | 0.505 | 0.281
NCI-H1755 | 0.654 | 0.74 | 0.674 | 0.397 | 0.356 | 0.787 | 0.709 | 0.79 | 0.683 | 0.759 | 0.57 | 0.526 | 0.52 | 0.511 | 0.374 | 0.865 | 0.645 | 0.724 | 0.438 | 0.268
NCI-H2023 | 0.639 | 0.445 | 0.577 | 0.371 | 0.117 | 0.394 | 0.469 | 0.425 | 0.304 | 0.364 | 0.357 | 0.282 | 0.335 | 0.15 | 0.0965 | 0.635 | 0.619 | 0.723 | 0.654 | 0.113
LC-2-ad | 0.713 | 0.768 | 0.41 | 0.296 | 0.203 | 0.817 | 0.941 | 0.984 | 0.708 | 0.785 | 0.514 | 0.41 | 0.469 | 0.459 | 0.315 | 0.467 | 0.325 | 0.433 | 0.366 | 0.251
NCI-H1666 | 1.1 | 1.22 | 1.24 | 0.998 | 0.799 | 0.874 | 0.863 | 0.83 | 0.732 | 0.964 | 0.627 | 0.598 | 0.635 | 0.543 | 0.461 | 1.04 | 1.38 | 1.39 | 0.96 | 0.409
201T | 1.03 | 1.12 | 1.01 | 0.927 | 0.771 | 0.691 | 0.753 | 0.82 | 0.662 | 0.69 | 0.958 | 0.924 | 1.05 | 0.976 | 0.636 | 1.09 | 1.03 | 1.08 | 1.08 | 0.903
NCI-H2009 | 0.782 | 0.759 | 0.665 | 0.689 | 0.501 | 0.622 | 0.755 | 0.707 | 0.557 | 0.607 | 0.8 | 0.686 | 0.834 | 0.649 | 0.545 | 1.02 | 1.09 | 1 | 0.637 | 0.454
NCI-H2228 | 0.601 | 0.779 | 0.352 | 0.228 | 0.211 | 0.62 | 0.602 | 0.81 | 0.521 | 0.537 | 0.299 | 0.178 | 0.285 | 0.232 | 0.108 | 0.512 | 0.442 | 0.415 | 0.21 | 0.255
LU99A | 0.437 | 0.484 | 0.416 | 0.213 | 0.169 | 0.329 | 0.286 | 0.33 | 0.322 | 0.291 | 0.276 | 0.276 | 0.226 | 0.242 | 0.199 | 0.606 | 0.49 | 0.275 | 0.314 | 0.162
NCI-H1437 | 0.819 | 1 | 0.843 | 0.731 | 0.525 | 0.866 | 0.782 | 0.889 | 0.88 | 0.834 | 0.434 | 0.39 | 0.42 | 0.385 | 0.372 | 0.863 | 0.897 | 0.906 | 0.887 | 0.674
